Laboratory results published in PubChem BioAssay (NCI).
Several values for one entry are separate records, joined by “and”; a condition that tells them apart may be missing. Equal values may be shown once.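 Tested at 5 concentrations; 48 h exposure; 96-well plates; endpoints linearly interpolated, else capped at highest concentration. The concentration for 50% growth inhibition is given as GI50. TGI marks complete inhibition of growth.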

Tests used:
Assay in all cases: inhibition of tumour cell growth, NCI panel, 48 h
A549 NSCLC = tested on: A549 NSCLC
ACHN renal = tested on: ACHN renal
CCRF-CEM leukemia = tested on: CCRF-CEM leukemia
EKVX NSCLC = tested on: EKVX NSCLC
HCT-15 colon = tested on: HCT-15 colon
KM12 colon = tested on: KM12 colon
M14 melanoma = tested on: M14 melanoma
MCF7 breast = tested on: MCF7 breast
MDA-N = tested on: MDA-N
NCI-H460 lung = tested on: NCI-H460 lung
NCI-H522 lung = tested on: NCI-H522 lung
NCI/ADR-RES ovarian = tested on: NCI/ADR-RES ovarian
PC-3 prostate = tested on: PC-3 prostate
SNB-75 CNS = tested on: SNB-75 CNS
SR leukemia = tested on: SR leukemia
T-47D breast = tested on: T-47D breast
U251 CNS = tested on: U251 CNS
UACC-62 melanoma = tested on: UACC-62 melanoma

SMILES | TGI (A549 NSCLC) | TGI (ACHN renal) | TGI (CCRF-CEM leukemia) | TGI (EKVX NSCLC) | TGI (HCT-15 colon) | TGI (KM12 colon) | TGI (M14 melanoma) | TGI (MCF7 breast) | TGI (MDA-N) | TGI (NCI-H460 lung) | TGI (NCI-H522 lung) | TGI (NCI/ADR-RES ovarian) | TGI (PC-3 prostate) | TGI (SNB-75 CNS) | TGI (SR leukemia) | TGI (T-47D breast) | TGI (U251 CNS) | TGI (UACC-62 melanoma) | GI50 (SNB-75 CNS) | GI50 (T-47D breast)
O=C(O)c1cc2ccccc2c(N=Nc2ccc(S(=O)(=O)Nc3nccs3)cc2)c1O | > 100 µM | > 100 µM | > 100 µM | > 100 µM | > 100 µM | > 100 µM | > 100 µM | > 100 µM | > 100 µM | > 100 µM | > 100 µM | > 100 µM | > 100 µM | > 100 µM | > 100 µM | > 100 µM | > 100 µM | > 100 µM | – | –
CCCCc1ccc(Nc2nc3c(ncn3C3CC(O)C(CN=[N+]=[N-])O3)c(=O)[nH]2)cc1 (configuration not stated) | > 100 µM | > 100 µM | > 100 µM | > 100 µM | > 100 µM | > 100 µM | > 100 µM | > 100 µM | > 100 µM | > 100 µM | > 100 µM | > 100 µM | > 100 µM | > 100 µM | > 100 µM | > 100 µM | > 100 µM | > 100 µM | – | –
CCCN(CCCC(NC(C)=O)C(=O)NCc1ccccc1)C(=O)N(CCCl)N=O (configuration not stated) | 68.7 µM | 37.5 µM | 76.8 µM | 59 µM | 42.5 µM | 42.3 µM | 31.7 µM | > 100 µM | > 100 µM | 23.6 µM | 29.2 µM | > 100 µM | > 100 µM | 39.8 µM | 17.5 µM | > 100 µM | 20.1 µM | 12.6 µM | – | –
Cc1cnc2sn(-c3ccc(Oc4ccccc4)cc3)c(=O)c2c1 | 46 µM | 31.6 µM | > 100 µM | 27.7 µM | 23.9 µM | 28 µM | 30.8 µM | 75.4 µM | 51.1 µM | 23.1 µM | 25.3 µM | 55.7 µM | 29.8 µM | 34.5 µM | 44 µM | 37.7 µM | 46 µM | 30.7 µM | – | –
CC(=O)OC(/C=C/c1ccccc1)P1(=O)N(CC(C)(C)C)[C@@H]2CCCC[C@H]2N1CC(C)(C)C (some centres not stated) | 17.3 µM and 18.5 µM | 21.6 µM and 20.3 µM | 47.8 µM and 34.1 µM | 19.1 µM and 18.9 µM | 20.9 µM and 17.6 µM | 26.1 µM and 21.4 µM | 17.5 µM and 18.9 µM | 16 µM and 17.5 µM | 23.1 µM and 21 µM | 21.1 µM and 19 µM | 13.3 µM and 12.8 µM | 20.6 µM and 18.3 µM | 12.1 µM and 10.1 µM | 12.8 µM and 4.17 µM | 19.5 µM and 14.5 µM | 9.04 µM and 6.4 µM | 22.6 µM and 19.7 µM | 21.1 µM and 23.2 µM | 3.91 µM and 0.684 µM | 2.9 µM and 1.18 µM
CCCCC(C#N)(OP1(=O)OC(c2ccccc2)C(C)N1C)c1ccccc1 (configuration not stated) | 44.3 µM | 37.5 µM | 40.3 µM | 39.8 µM | 54.8 µM | 37.2 µM | 38.3 µM | 39 µM | 31.3 µM | 31 µM | 33.7 µM | 52 µM | 32.7 µM | 37.3 µM | 43.9 µM | 55.1 µM | 31.4 µM | 29.4 µM | – | –
S=C(NC1=NCC(CN2CCN(c3ccccc3)CC2)O1)Nc1ccccc1 (configuration not stated) | > 100 µM | > 100 µM | > 100 µM | > 100 µM | > 100 µM | > 100 µM | > 100 µM | > 100 µM | > 100 µM | > 100 µM | > 100 µM | > 100 µM | > 100 µM | > 100 µM | > 100 µM | > 100 µM | > 100 µM | > 100 µM | – | –
CCOC(=O)C1=CNC(C(=O)OCC)C1c1cccn1-c1ccc(Cl)cc1[N+](=O)[O-] (configuration not stated) | > 100 µM | > 100 µM | 66.1 µM | 75.9 µM | 46.6 µM | 47.5 µM | 44.9 µM | 60.6 µM | 54.8 µM | 61.3 µM | 35.2 µM | 62.5 µM | 68.9 µM | 51.4 µM | 61.8 µM | > 100 µM | 41.1 µM | 35 µM | – | –
Cc1[nH]c2c(c1C)S(=O)(=O)c1cc3ccccc3nc1N2 | > 100 µM | > 100 µM | 45.8 µM | > 100 µM | > 100 µM | > 100 µM | 62.5 µM | > 100 µM | 39.4 µM | > 100 µM | 52 µM | > 100 µM | > 100 µM | 45.7 µM | > 100 µM | > 100 µM | 23.8 µM | > 100 µM | – | –
CCC(CON(C)c1ccccc1)(SC)SC | > 100 µM | > 100 µM | > 100 µM | > 100 µM | > 100 µM | > 100 µM | > 100 µM | > 100 µM | > 100 µM | > 100 µM | > 100 µM | > 100 µM | > 100 µM | > 100 µM | > 100 µM | > 100 µM | > 100 µM | > 100 µM | – | –
